Results taken from patent US20250129086A1, “COMPOUND FOR DEGRADING EGFR PROTEIN AND USE THEREOF” (TYK MEDICINES, INC., priority 2021, published 2025).

How the values were obtained:
Type in all cases: cell-based, human
[1] = system: HCC827 (exon 19 deletion mutation); assay: Cell antiproliferative assay (CTG, 72 h), HCC827; details: Table 2, HCC827 cells
Procedure: (§1) Test Example 1 Cell Antiproliferative Assay
(§2) H1975: with EGFR: L858R/T790M double mutation; PC-9 with EGFR exon 19 deletion, HCC827 with exon 19 deletion mutation. CellCounting-Lite2.0, Trypsin EDTA, 37° C. CO2 incubator, cell counter, EnVision Serial No.1050454. II. Experimental preparation:
(§3) • (A) Trypsin EDTA was used to digest log-phase cells, medium was added to terminate the reaction, and a cell suspension was made by blowing and mixing with a pipette. • (B) Cell concentration was determined using Vi-cell, and a suspension of 15,000-25,000 cells per milliliter was made depending on the purpose of the experiment and the characteristics of the cells. • (C) After the cell suspension was prepared, it was gently mixed and 100 microliters per well was added so that the density of cells to be tested was 1500-2500 per well.
(§4) • (A) About 2 mg of compound was weighed, and the volume of DMSO required was calculated according to the formula: compound mass (mg)*compound purity (%)/compound molecular weight*1000 • (B) The inoculated cell culture plates were incubated in an incubator and the compounds with concentration gradient were added after about 24 hours. • (C)10 Mm of compound stock solution was diluted to […] with medium, and 50 Mm of compound solution was added sequentially to the second column of the deep-well plate, and […] of medium containing 0.5% DMSO was added to the third to eleventh columns. • (D) Gradient dilution: 125 μl of solution was pipetted from the second column and added to the third column, after mixing; another 125 μl of solution was pipetted from the third column and added to the fourth column, and the operation was repeated until the tenth column. • (E)25 μl of compound was pipetted from the deep-well plate into a 96-well culture plate using a multichannel pipette, and each compound was repeated three times on the 96-well plate. A maximum concentration of 10,000 nm with concentration gradient of 1:4 was eventually formed on the 96-well plate.
(§5) • (A)96-well plates were incubated in an incubator for 72 h. The effect of the compounds was observed under an inverted microscope. • (B)25 μl of CTG solution was added to each well, the plate was put on shaker for 10 minutes and the […] of each well was read.
(§6) The cell viability rate (% Cell Viability) was calculated using the following formula: • % Cell Viability=100%×(Lum_Sample-Lum_LC)/(Lum_HC-Lum_LC) • Lum_HC: Cell reading of 0.1% DMSO control • Lum_Sample: Cell reading with compound added • Lum_LC: Reading of Blank media • IC50 values were obtained by curve fitting with GraphPad Prism 8 software.

[2] = system: H1975 (EGFR L858R/T790M double mutation); assay: Cell antiproliferative assay (CTG, 72 h), H1975; details: Table 2, H1975 cells
Procedure: as §1, §2, §3, §4, §5, §6

[3] = system: PC-9 (EGFR exon 19 deletion); assay: Cell antiproliferative assay (CTG, 72 h), PC-9; details: Table 2, PC-9 cells
Procedure: as §1, §2, §3, §4, §5, §6

SMILES	IC50 ([1]; Homo sapiens, HCC827, 72 h) [nM]	IC50 ([2]; Homo sapiens, NCI-H1975, 72 h) [nM]	IC50 ([3]; Homo sapiens, PC-9, 72 h) [nM]	IC50 [1] [nM]	IC50 [2] [nM]	IC50 [3] [nM]
COc1cc(N2CCN(C(=O)CN3CCC(c4ccc(NC5CCC(=O)NC5=O)cc4)C3)CC2)ccc1Nc1ncc(Cl)c(Nc2ccccc2C(C)=O)n1 (stereo not drawn) [Compound T-242]	100 to 1000	100 to 1000	100 to 1000	–	–	–
COc1cc(N2CCN(C(=O)CN3CCC(c4ccc(NC5CCC(=O)NC5=O)nc4)CC3)CC2)ccc1Nc1ncc(Cl)c(Nc2ccccc2C(C)=O)n1 (stereo not drawn) [Compound T-100]	100 to 1000	100 to 1000	100 to 1000	–	–	–
COc1cc(N2CC(N(C)C(=O)CN3CCC(c4ccc(NC5CCC(=O)NC5=O)cc4)CC3)C2)ccc1Nc1ncc(Cl)c(Nc2ccccc2C(C)=O)n1 (stereo not drawn) [Compound T-170]	≥ 1000	100 to 1000	≥ 1000	–	–	–
COc1cc(C2CCN(C(=O)CN3CCC(c4ccc(NC5CCC(=O)NC5=O)cc4)CC3)CC2)ccc1Nc1ncc(Cl)c(Nc2ccccc2P(C)(C)=O)n1 (stereo not drawn) [Compound T-331]	≥ 1000	100 to 1000	100 to 1000	–	–	–
COc1cc(N2CCN(C(=O)CN3CCC(c4ccc(NC5CCC(=O)NC5=O)cc4)CC3)CC2)c(C)cc1Nc1ncc(Cl)c(Nc2ccccc2P(C)(C)=O)n1 (stereo not drawn) [Compound T-327]	100 to 1000	10 to 100	100 to 1000	–	–	–
COc1cc(N2CCN(C(=O)CN3CCC(c4ccc(NC5CCC(=O)NC5=O)cc4)CC3)CC2)ccc1Nc1ncc(Cl)c(Nc2ccccc2OC)n1 (stereo not drawn) [Compound T-200]	100 to 1000	10 to 100	100 to 1000	–	–	–
COc1cc(N2CCN(C(=O)CN3CCC(c4ccc(NC5CCC(=O)NC5=O)cc4)CC3)CC2)c(C)cc1Nc1ncc(Cl)c(Nc2ccccc2C(=O)N(C)C)n1 (stereo not drawn) [Compound T-241]	100 to 1000	≤ 10	100 to 1000	–	–	–
COc1cc(N2CCN(C(=O)CN3CCC(c4ccc(NC5CCC(=O)NC5=O)cc4)CC3)CC2)ccc1Nc1ncc(C(F)(F)F)c(Nc2ccccc2C(=O)Nc2ccccc2)n1 (stereo not drawn) [Compound T-267]	100 to 1000	100 to 1000	100 to 1000	–	–	–
COc1cc(N2CCN(c3ncc(Cl)c(Nc4ccccc4C(C)=O)n3)CC2)ncc1NC(=O)CN1CCC(c2ccc(NC3CCC(=O)NC3=O)cc2)CC1 (stereo not drawn) [Compound T-239]	100 to 1000	≥ 1000	≥ 1000	–	–	–
COc1cc(N2CC[C@@H](N(C)C(=O)CN3CCC(c4ccc(NC5CCC(=O)NC5=O)cc4)CC3)C2)ccc1Nc1ncc(Cl)c(Nc2ccccc2C(C)=O)n1 (stereo partly drawn) [Compound T-171]	100 to 1000	10 to 100	≥ 1000	–	–	–
COc1cc(N2CCN(C(=O)CN3CCC(c4ccc(NC5CCC(=O)NC5=O)cc4)CC3)CC2)ccc1Nc1ncc(C(F)(F)F)c(Nc2ccccc2)n1 (stereo not drawn) [Compound T-02]	≥ 1000	10 to 100	100 to 1000	–	–	–
COc1cc(N2CCN(C(=O)CN3CCC(c4ccc(NC5CCC(=O)NC5=O)cc4)CC3)CC2)c(C)cc1Nc1ncc(Cl)c(Nc2ccccc2)n1 (stereo not drawn) [Compound T-122]	100 to 1000	100 to 1000	100 to 1000	–	–	–
COc1cc(N2CCC(CN3CCN(c4ccc5c(c4)C(=O)N(C4CCC(=O)NC4=O)C5=O)CC3)CC2)ccc1Nc1ncc(Cl)c(Nc2ccccc2C(C)=O)n1 (stereo not drawn) [Compound T-225]	≥ 1000	100 to 1000	≥ 1000	–	–	–
COc1cc(N2CCN(C(=O)CN3CCN(c4ccc(NC5CCC(=O)NC5=O)cc4)CC3)CC2)ccc1Nc1ncc(Cl)c(Nc2ccccc2C(C)=O)n1 (stereo not drawn) [Compound T-82]	≥ 1000	100 to 1000	≥ 1000	–	–	–
COc1cc(N2CCN(C(=O)CN3CCN(c4ccc5c(c4)CN(C4CCC(=O)NC4=O)C5=O)CC3)CC2)ccc1Nc1ncc(Cl)c(Nc2ccccc2C(C)=O)n1 (stereo not drawn) [Compound T-109]	≥ 1000	100 to 1000	≥ 1000	–	–	–
CP(C)(=O)c1ccccc1Nc1nc(Nc2ccc(N3CCN(C(=O)CN4CCC(c5ccc(NC6CCC(=O)NC6=O)cc5)CC4)CC3)cc2Cl)ncc1Cl (stereo not drawn) [Compound T-330]	100 to 1000	100 to 1000	100 to 1000	–	–	–
COc1cc(N2CCN(C(=O)CN3CCC(c4ccc(NC5CCC(=O)NC5=O)cc4)CC3)CC2)ccc1Nc1ncc(C(F)(F)F)c(Nc2ccc(F)cc2)n1 (stereo not drawn) [Compound T-52]	–	–	–	100 to 1000	10 to 100	≥ 1000
COc1cc(N2CC[C@H](NC(=O)CN3CCC(c4ccc(NC5CCC(=O)NC5=O)cc4)CC3)C2)ccc1Nc1ncc(Cl)c(Nc2ccccc2C(C)=O)n1 (stereo partly drawn) [Compound T-174]	≥ 1000	100 to 1000	≥ 1000	–	–	–
COc1cc(N2CCN(C(=O)CN3CCC(c4ccccc4NC4CCC(=O)NC4=O)CC3)CC2)ccc1Nc1ncc(Cl)c(Nc2ccccc2C(C)=O)n1 (stereo not drawn) [Compound T-193]	100 to 1000	100 to 1000	100 to 1000	–	–	–
COc1cc(N2CCN(C(=O)CN3CCC(c4ccc(NC5CCC(=O)NC5=O)cc4)CC3)CC2)ccc1Nc1ncc(Cl)c(Nc2cccc(C#N)c2)n1 (stereo not drawn) [Compound T-134]	≥ 1000	10 to 100	≥ 1000	–	–	–
C=CC(=O)Nc1cc(Nc2nccc(-c3cn(C)c4ccccc34)n2)c(OC)cc1N(C)CCN(C)CC(=O)N1CCC(c2ccc(NC3CCC(=O)NC3=O)cc2)CC1 (stereo not drawn) [Compound T-237]	100 to 1000	≥ 1000	100 to 1000	–	–	–
COc1cc(N2CCN(CC3CCN(c4ccc5c(c4)C(=O)N(C4CCC(=O)NC4=O)C5=O)CC3)CC2)ccc1Nc1ncc(Cl)c(Nc2ccccc2C(C)=O)n1 (stereo not drawn) [Compound T-226]	100 to 1000	100 to 1000	≥ 1000	–	–	–
COc1cc(N2CCN(C(=O)CN3CCC(c4ccc(NC5CCC(=O)NC5=O)cc4)CC3)CC2)ccc1Nc1ncc(Cl)c(Nc2cccc(F)c2)n1 (stereo not drawn) [Compound T-09]	≥ 1000	10 to 100	≥ 1000	–	–	–

More lines, now with the values ahead:

IC50 ([1]; Homo sapiens, HCC827, 72 h) [nM]	IC50 ([2]; Homo sapiens, NCI-H1975, 72 h) [nM]	IC50 ([3]; Homo sapiens, PC-9, 72 h) [nM]	IC50 [1] [nM]	IC50 [2] [nM]	IC50 [3] [nM]	SMILES
100 to 1000	100 to 1000	≥ 1000	–	–	–	COc1cc(N2CCN(C(=O)CN3CCC(c4ccc(NC5CCC(=O)NC5=O)cc4)CC3)CC2)ccc1Nc1ncc(Cl)c(Nc2cc(F)ccc2F)n1 (stereo not drawn) [Compound T-132]
10 to 100	10 to 100	10 to 100	–	–	–	COc1cc(N2CCN(C(=O)CN3CCC(c4ccc(NC5CCC(=O)NC5=O)cc4)CC3)CC2)ncc1Nc1ncc(Cl)c(Nc2ccccc2C(C)=O)n1 (stereo not drawn) [Compound T-244]
10 to 100	10 to 100	10 to 100	–	–	–	COc1cc(N2CCN(C(=O)CC3(F)CCN(c4ccc(NC5CCC(=O)NC5=O)cc4)CC3)CC2)ccc1Nc1ncc(Cl)c(Nc2ccccc2C(C)=O)n1 (stereo not drawn) [Compound T-303]
10 to 100	10 to 100	10 to 100	–	–	–	CNC(=O)c1ccccc1Nc1nc(Nc2ccc(N3CCN(C(=O)CC4(F)CCN(c5ccc(NC6CCC(=O)NC6=O)cc5)CC4)CC3)cc2OC)ncc1Cl (stereo not drawn) [Compound T-300]
10 to 100	10 to 100	10 to 100	–	–	–	CNC(=O)c1ccccc1Nc1nc(Nc2cc(C)c(N3CCN(C(=O)CN4CCC(c5ccc(NC6CCC(=O)NC6=O)cc5F)CC4)CC3)cc2OC)ncc1Br (stereo not drawn) [Compound T-368]
10 to 100	10 to 100	10 to 100	–	–	–	COc1cc(N2CCN(C(=O)CN3CCC(c4ccc(NC5CCC(=O)NC5=O)cc4)CC3)CC2)ccc1Nc1ncc(Cl)c(Nc2cccc3c2C(=O)N(C)C3)n1 (stereo not drawn) [Compound T-268]
10 to 100	≤ 10	10 to 100	–	–	–	CNC(=O)c1ccccc1Nc1nc(Nc2ccc(N3CCN(C(=O)CN4CCC(c5ccc(NC6CCC(=O)NC6=O)cc5)C(F)(F)C4)CC3)cc2OC)ncc1Br (stereo not drawn) [Compound T-313]
10 to 100	≤ 10	10 to 100	–	–	–	COc1cc(N2CCN(C(=O)CN3CCC(c4ccc(NC5CCC(=O)NC5=O)cc4)CC3)CC2)ccc1Nc1ncc(Cl)c(Nc2ccc(Cl)cc2C(C)(C)O)n1 (stereo not drawn) [Compound T-243]
10 to 100	10 to 100	10 to 100	–	–	–	CNC(=O)c1ccccc1Nc1nc(Nc2cc(C)c(N3CCN(C(=O)CN4CCC(c5ccc(NC6CCC(=O)NC6=O)cc5F)CC4)CC3)cc2OC)ncc1C(F)(F)F (stereo not drawn) [Compound T-369]
10 to 100	10 to 100	10 to 100	–	–	–	CNC(=O)c1ccccc1Nc1nc(Nc2cc(C)c(N3CCN(C(=O)CN4CCC(c5ccc(NC6CCC(=O)NC6=O)cc5)CC4)C(C)C3)cc2OC)ncc1Cl (stereo not drawn) [Compound T-355]
